The source of these data is ChEMBL document CHEMBL1201862, “PubChem BioAssay data set” (2004).

What all share (experiment): inhibition of tumour cell growth, NCI panel, 48 h
For assay [1], the system named is MOLT-4.
Assay [2] has as its system HOP-62.
Assay [3] has as its system CCRF-CEM.
Assay [4] deals with UACC-62.
Assay [5] has as its system DMS-114.
For assay [6], the system named is U-251.
In assay [7] the test system is NCI-H23.
Assay [8] deals with OVCAR-5.
In assay [9] the test system is TK-10.
Assay [10] has as its system UACC-257.
In assay [11] the test system is SF-295.
Assay [12] has as its system NCI-H460.
Assay [13] relates to 786-0.
For assay [14], the system named is SK-MEL-2.
Assay [15] deals with A549.
The subject of assay [16] is SNB-19.

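These data come from cells grown in 96-well plates and exposed to compound for 48 hours at five concentrations. The concentration for 50% growth inhibition is given as GI50.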 Calls of active or inactive are those of the source. Rule as the data show it: active = GI50 up to about 1.1 µM and inactive = higher.

Consider `Cc1cc(C)cc(NC(N)=S)c1`, for which the GI50 in [1] was > 100 µM (inactive); in assay [2], > 100 µM (inactive); in [3] it was 19.1 µM (inactive); in assay [4], > 100 µM (inactive); in [5], 45.3 µM (inactive); in assay [6] it was 38.6 µM (inactive). Also, the GI50 in assay [7] is > 100 µM (inactive); in assay [8] it was > 100 µM (inactive); in assay [9] it was > 100 µM (inactive); in assay [10] it was 36.4 µM (inactive); in assay [11] it was > 100 µM (inactive); in assay [12], > 100 µM (inactive). The GI50 was 92.5 µM (inactive) in [13], > 100 µM (inactive) in assay [14], > 100 µM (inactive) in assay [15] and > 100 µM (inactive) in [16].
On to `Cc1c2c(c(C)c3c1[nH]c1ccccc13)CN(C)CC2`, for which the GI50 is 28.7 µM (inactive) in assay [1]; 23.2 µM (inactive) in assay [2]; 49.4 µM (inactive) in assay [3]; 18 µM (inactive) in [4]; 15.1 µM (inactive) in [5]; 12.1 µM (inactive) in [6]. The GI50 in [7] is 15.4 µM (inactive); in assay [8], 38.8 µM (inactive); in assay [9] it was 29.4 µM (inactive); in [10] it was 17.2 µM (inactive); in assay [11], 17.1 µM (inactive); in assay [12], 16.5 µM (inactive). Besides, the GI50 was 14.9 µM (inactive) in [13], 17.3 µM (inactive) in assay [14], 17.9 µM (inactive) in assay [15] and 27.4 µM (inactive) in assay [16].
With `C=CCc1cc(OC)c2c(c1)C(O)CC(c1ccccc1)O2` (stereo not given), the GI50 in [1] was 27.9 µM (inactive); in [2], > 100 µM (inactive); in assay [3] it was > 100 µM (inactive); in assay [4], > 100 µM (inactive); in assay [5] it was > 100 µM (inactive); in assay [6] it was > 100 µM (inactive). The GI50 in [7] was > 100 µM (inactive); in assay [8] it was 78.5 µM (inactive); in [9], > 100 µM (inactive); in assay [10], > 100 µM (inactive); in [11] it was > 100 µM (inactive); in [12], > 100 µM (inactive). Besides, the GI50 in assay [13], in [14], in assay [15] and in [16] was > 100 µM (inactive) in each case.
In the case of `Sc1nnc(C(c2ccccc2)c2ccccc2)[nH]1`, the GI50 in assay [1], in assay [2], in assay [3], in assay [4], in [5] and in assay [6] was > 100 µM (inactive) in each case. For the same compound, the GI50 in assay [7], in assay [8], in assay [9], in assay [10], in assay [11] and in assay [12] was > 100 µM (inactive) each time. The GI50 in [13], in [14], in assay [15] and in assay [16] was > 100 µM (inactive) in each case.
As for `CCC(C)NC1=C(NC(C)=O)C(=O)c2ccccc2C1=O` (stereo not given), the GI50 is 74 µM (inactive) in assay [1]; > 75 µM (inactive) in assay [2]; 21.8 µM (inactive) in assay [3]; > 75 µM (inactive) in assay [4]; 28.4 µM (inactive) in assay [5]; > 75 µM (inactive) in assay [6]. In addition, the GI50 in assay [7], in [8], in [9], in assay [10], in assay [11] and in [12] was > 75 µM (inactive) in each case. Moreover, the GI50 is > 7.5 µM (inactive) in assay [13], > 75 µM (inactive) in assay [14], > 75 µM (inactive) in assay [15] and > 75 µM (inactive) in [16].
On to `CCOC(=O)C(Cc1ccc([N+](=O)[O-])cc1)NC(=O)CC1c2ccccc2-c2ccccc21` (stereo not given), for which the GI50 in assay [1] is > 100 µM (inactive); in assay [2], 35.2 µM (inactive); in assay [3] it was > 100 µM (inactive); in assay [4] it was > 100 µM (inactive); in [5], 37.6 µM (inactive); in [6], 43.9 µM (inactive). Besides, the GI50 was > 100 µM (inactive) in assay [7]; 32.7 µM (inactive) in [9]; 24.5 µM (inactive) in assay [10]; 51.5 µM (inactive) in assay [11]; > 100 µM (inactive) in assay [12]; 39.1 µM (inactive) in [13]. Further, the results for the GI50 in [14], in assay [15] and in assay [16] were 45.1 µM (inactive), 81.8 µM (inactive) and 39.3 µM (inactive), respectively.
Consider `COc1ccc(N2C(=O)C3c4[nH]c5ccccc5c4C4CCCCCCC4C3C2=O)cc1` (stereo not given), for which the GI50 in [1] was 8 µM (inactive); in assay [2], 8.22 µM (inactive); in assay [3] it was 4.12 µM (inactive); in assay [4], 15.9 µM (inactive); in assay [5], 8.71 µM (inactive); in [6], 4.06 µM (inactive). Moreover, the GI50 in assay [7] was 13.1 µM (inactive); in assay [8] it was > 52.1 µM (inactive); in assay [9], 20.1 µM (inactive); in [10], 38.9 µM (inactive); in assay [11] it was 11.6 µM (inactive); in assay [12], 7.18 µM (inactive). Moreover, the GI50 is 3.13 µM (inactive) in assay [13], 26.2 µM (inactive) in assay [14], 6.76 µM (inactive) in [15] and 10.2 µM (inactive) in assay [16].
For `CC(C)(O)[C@@H]1CC[C@@]2(C)CCC[C@H](O)[C@H]2C1`, the GI50 in [1], in assay [2], in assay [3], in assay [4], in assay [5] and in assay [6] was > 100 µM (inactive) throughout. Further, the GI50 in [7], in assay [8], in [9], in assay [10], in assay [11] and in assay [12] was > 100 µM (inactive) in each case. Besides, the GI50 in [13], in [14], in assay [15] and in assay [16] was > 100 µM (inactive) throughout.
`Cc1ccc(/C=N/NS(=O)(=O)c2ccccc2)c(C)c1`: the GI50 is > 100 µM (inactive) in assay [1]; > 100 µM (inactive) in [2]; 78.9 µM (inactive) in [3]; > 100 µM (inactive) in assay [4]; > 100 µM (inactive) in assay [5]; > 100 µM (inactive) in assay [6]. For the same compound, the GI50 was > 100 µM (inactive) in [7]; > 100 µM (inactive) in assay [8]; > 100 µM (inactive) in [9]; 80 µM (inactive) in assay [10]; > 100 µM (inactive) in assay [11]; > 100 µM (inactive) in assay [12]. Moreover, the GI50 in [13], in assay [14] and in [15] was > 100 µM (inactive) in each case.
As to `COC(=O)C1CC/C(=N\c2cccc(C(F)(F)F)c2)N1` (stereo not given), the GI50 in [1], in assay [2], in [3], in assay [4], in assay [5] and in assay [6] was > 100 µM (inactive) each time. The GI50 in [7], in [8], in [9], in assay [10], in [11] and in [12] was > 100 µM (inactive) in each case. Also, the GI50 in [13], in assay [14], in [15] and in assay [16] was > 100 µM (inactive) throughout.
On to `O=C(O)CCSC(=O)Nc1cccc(F)c1`, for which the GI50 in [1] is > 100 µM (inactive); in assay [2] it was 14.3 µM (inactive); in [3] it was > 100 µM (inactive); in assay [4] it was 0.228 µM (active); in assay [5] it was 66.5 µM (inactive); in assay [6] it was > 100 µM (inactive). Besides, the GI50 in assay [7], in assay [8], in [9], in assay [10], in assay [11] and in assay [12] was > 100 µM (inactive) throughout. For the same compound, the GI50 in [13], in assay [14], in [15] and in assay [16] was > 100 µM (inactive) in each case.
`O=S(=O)(O)c1cc(O)c2c(O)c(/N=N/c3ccc(/C=C/c4ccc(/N=N/c5c(S(=O)(=O)O)cc6cc(S(=O)(=O)O)cc(O)c6c5O)cc4S(=O)(=O)O)c(S(=O)(=O)O)c3)c(S(=O)(=O)O)cc2c1`: the GI50 in [1] was > 100 µM (inactive); in assay [2], > 100 µM (inactive); in assay [3] it was > 100 µM (inactive); in assay [4], > 100 µM (inactive); in [5] it was 56.6 µM (inactive); in assay [6], > 100 µM (inactive). The GI50 in assay [7], in assay [8], in assay [9], in assay [10], in assay [11] and in [12] was > 100 µM (inactive) each time. Besides, the GI50 in assay [13], in [14], in assay [15] and in assay [16] was > 100 µM (inactive) throughout.
